Structures can show the parent of a compound that is named as a salt.
What was measured:
human MC4 receptor = human MC4 receptor (Homo sapiens (Human), UniProt P32245); assay: Human MC receptor activation, cAMP production in cells expressing human MC4 receptor; type: cell-based; settings: FreeStyle 293-F cells transiently expressing human MC4 receptor, α-MSH maximum = 100%
Description: (§1) (1) Construction of Human MC Receptor-Expressing Vector
(§2) A human MC4 receptor gene (GenBank Accession No.: NM_005912.2), a human MC1 receptor gene (GenBank Accession No.: NM_002386.3), or a human MC3 receptor gene (GenBank Accession No.: NM_019888.3) was introduced into an expression vector pcDNA™ 3.1/V5-His TOPO (registered trademark) (Thermo Fisher Scientific Inc.).
(§3) (2) Construction of Cells Transiently Expressing Human MC Receptor
(§4) An expression vector for a human MC4, MC1, or MC3 receptor was introduced into FreeStyle™ 293-F cell (Thermo Fisher Scientific Inc., product number: R790-07). For the introduction, electroporation was employed. That is, 1×10^7 FreeStyle™ 293-F cell were suspended in 80 μL of an electroporation buffer (Thermo Fisher Scientific Inc., product number: B201-100), and 20 μg of the expression vector was added thereto. The resultant was put into a cuvette (OC-100 Processing Assembly, MaxCyte, Inc.) and electroporated with MaxCyte SIX (registered trademark) (MaxCyte, Inc.). The cells were cultured over one day, suspended in a Cell Banker (registered trademark) 1 (JUJI FIELD Inc.), product number: BLC-1), and stored frozen until their use.
(§5) (3) Measurement of Amount of cAMP Produced
(§6) Measurement was carried out by using a LANCE (registered trademark) Ultra cAMP Kit (PerkinElmer, Inc.) in accordance with the attached instructions. That is, after dissolution in DMSO, the test compound (a final concentration of 1 pM to 30 μM) diluted with an assay buffer (Hank's balanced salt solution, 5 mM 4-(2-hydroxyethyl)-1-piperazineethanesulfonic acid (HEPES), 0.5 mM 3-isobutyl-1-methylxanthine (IBMX), 0.1% bovine serum albumin, pH 7.4), or α-MSH (Bachem Inc., a final concentration of 1 pM to 30 μM) was added to OptiPlate-384 (PerkinElmer, Inc.). Furthermore, a suspension of cells transiently expressing the human MC4, MC1, or MC3 receptor prepared by using the assay buffer was added thereto at 1,000 cells/well, followed by being left to stand at room temperature for about 1 hour. Thereafter, an Eu-cAMP tracer solution and an ULight™-anti-cAMP solution were added thereto, followed by being left to stand at room temperature for about 1 hour. The amount of cAMP was calculated using EnVision (registered trademark) (PerkinElmer Inc.).
(§7) For the agonistic activity, an efficacy (EC50 (μM)) was calculated by a non-linear regression method with a Sigmoid-Emax model, by defining the maximum reaction with α-MSH as 100% and the reaction with the vehicle alone as 0%, respectively.

human MC1 receptor = human MC1 receptor (Homo sapiens (Human), UniProt Q01726); assay: Human MC receptor activation, cAMP production in cells expressing human MC1 receptor; type: cell-based; settings: FreeStyle 293-F cells transiently expressing human MC1 receptor, α-MSH maximum = 100%
Description: as §1, §2, §3, §4, §5, §6, §7

human MC3 receptor = human MC3 receptor (Homo sapiens (Human), UniProt P41968); assay: Human MC receptor activation, cAMP production in cells expressing human MC3 receptor; type: cell-based; settings: FreeStyle 293-F cells transiently expressing human MC3 receptor, α-MSH maximum = 100%
Description: as §1, §2, §3, §4, §5, §6, §7

Male SD rats = assay: Rat erection-inducing action; type: in vivo; settings: 10 mg/kg intravenously, erections up to one hour after administration, vs vehicle, P<0.05
Protocol: Male SD rats (Charles River Laboratories Japan, Inc.) were used. A test compound (10 mg/kg) or the vehicle (20% dimethyl acetamide, 10% Cremophor (registered trademark), 70% physiological saline) was administered intravenously through the tail vein. After administration, the rats were transferred to transparent observation cages made of plastic to measure the erection times of up to one hour after administration. The measurements were carried out for five groups (3 to 7 animals per group): vehicle groups, Example compound groups (Ex 87, 88, and 89), and THIQ group, which had been known as an MC4 receptor agonist (J. Med. Chem., 45, 4589-4593 (2002)), as a positive control. For a statistical significance test, Dunnett's multiple comparison test was used for the comparison with vehicle control group, and it was determined whether there was an erection-inducing effect with a statistically significant difference (P<0.05).

Sequence of human MC1 receptor (Q01726 whole entry): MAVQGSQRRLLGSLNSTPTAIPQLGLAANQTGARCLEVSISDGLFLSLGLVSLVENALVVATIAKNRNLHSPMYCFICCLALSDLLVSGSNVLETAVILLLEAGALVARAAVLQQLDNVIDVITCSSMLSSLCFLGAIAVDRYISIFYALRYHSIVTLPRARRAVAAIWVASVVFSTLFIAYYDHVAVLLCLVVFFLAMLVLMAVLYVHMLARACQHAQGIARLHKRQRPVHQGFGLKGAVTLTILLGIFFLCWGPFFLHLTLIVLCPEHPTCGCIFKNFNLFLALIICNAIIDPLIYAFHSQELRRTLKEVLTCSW
Sequence of human MC4 receptor (P32245 whole entry): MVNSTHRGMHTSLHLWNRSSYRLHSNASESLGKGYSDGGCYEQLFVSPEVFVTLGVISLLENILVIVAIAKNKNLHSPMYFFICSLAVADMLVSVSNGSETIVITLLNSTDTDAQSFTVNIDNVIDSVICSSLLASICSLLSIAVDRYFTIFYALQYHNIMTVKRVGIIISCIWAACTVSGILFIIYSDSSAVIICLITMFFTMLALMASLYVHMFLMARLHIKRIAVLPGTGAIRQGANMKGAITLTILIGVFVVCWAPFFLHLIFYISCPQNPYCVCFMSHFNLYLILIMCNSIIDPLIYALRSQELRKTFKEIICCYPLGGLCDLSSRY
Sequence of human MC3 receptor (P41968 whole entry): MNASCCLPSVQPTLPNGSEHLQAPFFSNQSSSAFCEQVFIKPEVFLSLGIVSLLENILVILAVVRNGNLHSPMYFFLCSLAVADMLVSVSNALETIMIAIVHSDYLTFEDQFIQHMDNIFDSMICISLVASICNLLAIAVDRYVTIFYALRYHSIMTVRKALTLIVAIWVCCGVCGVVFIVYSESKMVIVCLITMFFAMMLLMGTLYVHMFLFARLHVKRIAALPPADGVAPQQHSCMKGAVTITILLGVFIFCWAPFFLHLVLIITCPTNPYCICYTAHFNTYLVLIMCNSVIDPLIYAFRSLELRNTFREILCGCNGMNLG

| SMILES | EC50 (human MC4 receptor) | EC50 (human MC1 receptor) | EC50 (human MC3 receptor) | erection-inducing effect (Male SD rats) |
| --- | --- | --- | --- | --- |
| COC[C@H]1CN([C@@H](Cc2ccc3c(c2)CCC3)C(=O)O)CCN1C(=O)[C@@H]1CN(c2ccc(F)cc2)C[C@H]1c1ccc(F)cc1F [Example 27] | 1 µM |  |  |  |
| CC[C@H]1CN([C@@H](Cc2ccc3ccccc3c2)C(=O)O)CCN1C(=O)[C@@H]1CN(C(C)=O)C[C@H]1c1ccc(F)cc1F [Example 50] | 0.064 µM |  |  |  |
| COc1ccc(C2CN(C(C)(C)C)CC2C(=O)N2CCN([C@@H](Cc3ccc4c(c3)CCC4)C(=O)O)C[C@@H]2C)cc1 (stereo partly drawn) [Example 45] | 1.1 µM |  |  |  |
| C[C@H]1CN([C@@H](Cc2ccc3c(c2)CCC3)C(=O)O)CCN1C(=O)C1CN(C(C)(C)C)CC1c1ccc(Cl)s1 (stereo partly drawn) [Example 55] | 0.27 µM |  |  |  |
| CN(C)CC[C@H]1CN([C@@H](Cc2ccc3ccccc3c2)C(=O)O)CCN1C(=O)[C@@H]1CN(c2ccc(=O)n(C)n2)C[C@H]1c1ccc(F)cc1F [Example 24] | 0.0032 µM | 15 µM | 0.58 µM |  |
| C[C@H]1CN([C@@H](Cc2ccc(OC(F)F)cc2)C(=O)O)CCN1C(=O)[C@@H]1CN(C(C)(C)C)C[C@H]1c1ccc(Cl)cc1F [Example 72] | 0.04 µM | 2.1 µM | 5.3 µM |  |
| C[C@H]1CN([C@@H](Cc2c[nH]c3ccccc23)C(=O)O)CCN1C(=O)[C@@H]1CN(C(C)(C)C)C[C@H]1c1ccc(F)cc1F [Example 53] | 0.19 µM |  |  |  |
| Cc1ccc([C@H](C)[C@@H](C(=O)O)N2CCN(C(=O)[C@@H]3CN(C4CCOCC4)C[C@H]3c3ccc(Cl)cc3F)[C@@H](C)C2)cc1 [Example 78] | 0.016 µM | 1 µM | 0.68 µM |  |
| O=C(N[C@H](Cc1ccc(Cl)cc1)C(=O)N1CCC(Cn2cncn2)(C2CCCCC2)CC1)[C@H]1Cc2ccccc2CN1 [THIQ, reference compound] |  |  |  | exhibited a significant erection-inducing effect |
| C[C@H]1CN([C@@H](Cc2ccc3c(c2)CCC3)C(=O)O)CCN1C(=O)C1CN(C(C)(C)C)CC1c1ccc2c(c1)CCC2 (stereo partly drawn) [Example 83] | 0.19 µM |  |  |  |
| C[C@@H]1CN(C(=O)[C@@H]2CN(C(C)(C)C)C[C@H]2c2ccc(F)cc2F)CCN1C(Cc1ccc(Cl)c(Cl)c1)C(=O)O (stereo partly drawn) [Example 16] | 4.9 µM |  |  |  |
| C[C@H]1CN([C@@H](Cc2ccc(C(F)(F)F)cc2)C(=O)O)CCN1C(=O)[C@@H]1CN(C(C)(C)C)C[C@H]1c1ccc(F)cc1F [Example 13] | 0.048 µM |  | 5 µM |  |
| C[C@H]1CN([C@@H](Cc2ccc3c(c2)CCC3)C(=O)O)CCN1C(=O)[C@@H]1CN(c2ccc(C(F)(F)F)nn2)C[C@H]1c1ccc(F)cc1F [Example 33] | 0.61 µM |  |  |  |
| C[C@H]1CN([C@@H](Cc2ccc3c(c2)CCC3)C(=O)O)CCN1C(=O)[C@@H]1CN(C2(C)CC2)C[C@H]1c1ccc(Cl)cc1F [Example 68] | 0.53 µM |  |  |  |
| C[C@H]1CN([C@@H](Cc2ccc3c(c2)CCC3)C(=O)O)CCN1C(=O)C1CN(C(C)(C)C)CC1c1ccc(C#N)cc1F (stereo partly drawn) [Example 47] | 0.062 µM | > 30 µM | 11 µM |  |
| C[C@H]1CN([C@@H](CC2CCCCC2)C(=O)O)CCN1C(=O)[C@@H]1CN(C(C)(C)C)C[C@H]1c1ccc(Cl)cc1F [Example 57] | 0.12 µM | 1.9 µM | 2.4 µM |  |
| Cc1ccc(C[C@@](C)(C(=O)O)N2CCN(C(=O)[C@@H]3CN(C4CCOCC4)C[C@H]3c3ccc(F)cc3F)[C@@H](C)C2)c(F)c1 [Example 74] | 0.03 µM | 1.4 µM | 1 µM |  |
| C[C@H]1CN([C@@H](Cc2ccc(C3CC3)cc2F)C(=O)O)CCN1C(=O)[C@@H]1CN(C2CCOCC2)C[C@H]1c1ccc(Cl)cc1F [Example 92] | 0.012 µM | 1.7 µM | 1.8 µM |  |
| C[C@H]1CN([C@@H](Cc2ccc(C#N)cc2)C(=O)O)CCN1C(=O)[C@@H]1CN(C(C)(C)C)C[C@H]1c1ccc(F)cc1F [Example 21] | 1.7 µM |  |  |  |
| C[C@H]1CN([C@@H](Cc2ccc3c(c2)CCC3)C(=O)O)CCN1C(=O)[C@@H]1CN(C(C)(C)CO)C[C@H]1c1ccc(F)cc1F [Example 28] | 0.15 µM | 3.9 µM | 10 µM |  |
| C[C@@H]1CN([C@@H](Cc2ccc3ccccc3c2)C(=O)O)C[C@H](C)N1C(=O)[C@@H]1CN(C(C)(C)C)C[C@H]1c1ccc(F)cc1F [Example 6, (2S)-2-[(3R,5S)-4-{[(3S,4R)-1-tert-butyl-4-(2,4-difluorophenyl)pyrrolidin-3-yl]carbonyl}-3,5-dimethylpiperazin-1-yl]-3-(2-naphthyl)propanoic acid dihydrochloride] | 0.48 µM | 6.4 µM | > 30 µM |  |
| CC(C)(C)N1C[C@@H](C(=O)N2CCN([C@@H](Cc3ccc4c(c3)CCC4)C(=O)O)C[C@@H]2CC2CC2)[C@H](c2ccc(F)cc2F)C1 [Example 36] | 0.0019 µM |  |  |  |
| C[C@@H]1CN(C(=O)[C@@H]2CN(C(C)(C)C)C[C@H]2c2ccc(F)cc2F)CCN1C(Cc1ccc(Cl)c(Cl)c1)C(=O)O (stereo partly drawn) [Example 15] | 0.49 µM |  |  |  |
| COc1ccc(C[C@@H](C(=O)O)N2CCN(C(=O)[C@@H]3CN(C(C)(C)C)C[C@H]3c3ccc(Cl)cc3F)[C@@H](C)C2)c(F)c1 [Example 69] | 0.0051 µM | 0.72 µM | 2.9 µM |  |
| Cc1ccc(C[C@@H](C(=O)O)N2CCN(C(=O)C3CN(C4(C)CCOCC4)CC3c3ccc(F)cc3F)[C@@H](C)C2)c(F)c1 (stereo partly drawn) [Example 84] | 0.018 µM |  |  |  |
| CC(C)(C)N1C[C@@H](C(=O)N2CCN([C@@H](Cc3ccc4ccccc4c3)C(=O)O)CC23CC3)[C@H](c2ccc(F)cc2F)C1 [Example 17] | 2.4 µM |  |  |  |
| C[C@H]1CN([C@@H](Cc2ccc3c(c2)CCC3)C(=O)O)CCN1C(=O)[C@@H]1CN(C(=O)C2CC2)C[C@H]1c1ccc(F)cc1F [Example 35] | 0.14 µM |  |  |  |
